Results reported in patent US20240209001A1, “HETEROCYCLIC DERIVATIVES AS JANUS KINASE INHIBITORS” (CHIESI FARMACEUTICI S.P. A., priority 2021, published 2024).

Key:
JAK 1 = JAK 1 (Homo sapiens (Human), UniProt P23458); assay: Biochemical potency on JAK1, TR-FRET LANCE Ultra kinase assay (compounds 1-92); conditions: ATP at Km, read-out: JAK1 inhibitory activity (pIC50 class) (converted)
Description: (§1) Biochemical Potency on JAK1, JAK2, JAK3 and Tyk2 Assay Principle The objective of this study was to assess the capability of compounds to inhibit all 4 JAK isoforms activity in a cell-free environment. Assay for JAK 1, JAK 2, JAK 3 and TYK2 were performed by Time-resolved fluorescence resonance energy transfer (TR-FRET) technology. It consists in the interaction of two labelled binding partners detected by the energy transfer from an excited donor to an acceptor dye and measurement of light emission by the acceptor dye. LANCE Ultra kinase assay was used. In presence of JAK 1, JAK 2, JAK 3 and TYK2 kinases and ATP (corresponding to Km), the ULight peptide substrate (LANCE Ulight-JAK-1 ([…]) Peptide, Perkin Elmer, TRF0121) is phosphorylated. It is then captured by Eu-anti-phospho-substrate antibody (LANCE Eu-W1024 Anti-phosphotyrosine (PT66), Perkin Elmer, AD0069), which bring the Eu-chelate donor and ULight acceptor dyes into close proximity. Upon excitation at 320 nm, the Eu-chelate transfers its energy to the ULight dye, resulting in a fluorescent light emission at 665 nm. Compound Testing Serial dilutions of compounds in pure DMSO are prepared from 10 mM DMSO stock solutions. Compounds were tested in 384-well plate for 11 consecutive 5-fold dilutions starting from 20 μM highest concentration (20 μM-[…]). 200 nL of compound were transferred from mother plate to test plate by using Mosquito (TTP labtech). Assay was performed in 384-well Perkin Elmer test plate in 20 μL assay volume (kinase reaction) and 40 μL total volume (stopping reagent and antibody detection reagents). In 10 μL of substrate solution (peptide+ATP) 30/50/20/10 nM of peptide and 20/0.7/0.2/12 μM of ATP were added for JAK 1, JAK 2, JAK 3 and TYK2 respectively. 10 μL of enzyme solution was added to kinase reaction at these concentrations: 0.15/0.083/0.025/0.144 ng/μL of JAK 1, JAK 2, JAK 3 and TYK2 respectively. After shaking and 1.5 h of incubation at r.t., 20 μL of Stop (10 μL EDTA) and Detection mixture (10 μL Europium-anti-phospho antibody, final: 0.5 nM) were added. Reading was performed after 1 h of incubation on a EnVision 2104 reader (Perkin Elmer). Calculation of IC50 data, curves and QC analysis was performed by using Excel tool and GraphPadPrism software, v9. Briefly, individual concentration-effect curves are generated by plotting the logarithm of the tested concentration of tested compounds (X) vs. corresponding percent inhibition values (Y) using least squares (ordinary) fit. Best fit IC50 values are calculated using Log(inhibitor) vs. normalized response-Variable slope equation, where Y=100/(1+10^((Log IC50-X)*HillSlope)). QC criteria parameters (Z', S:B, R2, HillSlope) were checked for every IC50 curve. Calculation of IC50 data, curves and QC analysis were made using Excel tools and GraphPadPrism software. QC criteria parameters: Z'≥0.5, Hill Slope range 0.5 to 5, S:B>2.

JAK 2 = JAK 2 (Homo sapiens (Human), UniProt O60674); assay: Biochemical potency on JAK2, TR-FRET LANCE Ultra kinase assay (compounds 1-92); conditions: ATP at Km, read-out: JAK2 inhibitory activity (pIC50 class) (converted)
Sequence of JAK 2 (O60674 whole entry): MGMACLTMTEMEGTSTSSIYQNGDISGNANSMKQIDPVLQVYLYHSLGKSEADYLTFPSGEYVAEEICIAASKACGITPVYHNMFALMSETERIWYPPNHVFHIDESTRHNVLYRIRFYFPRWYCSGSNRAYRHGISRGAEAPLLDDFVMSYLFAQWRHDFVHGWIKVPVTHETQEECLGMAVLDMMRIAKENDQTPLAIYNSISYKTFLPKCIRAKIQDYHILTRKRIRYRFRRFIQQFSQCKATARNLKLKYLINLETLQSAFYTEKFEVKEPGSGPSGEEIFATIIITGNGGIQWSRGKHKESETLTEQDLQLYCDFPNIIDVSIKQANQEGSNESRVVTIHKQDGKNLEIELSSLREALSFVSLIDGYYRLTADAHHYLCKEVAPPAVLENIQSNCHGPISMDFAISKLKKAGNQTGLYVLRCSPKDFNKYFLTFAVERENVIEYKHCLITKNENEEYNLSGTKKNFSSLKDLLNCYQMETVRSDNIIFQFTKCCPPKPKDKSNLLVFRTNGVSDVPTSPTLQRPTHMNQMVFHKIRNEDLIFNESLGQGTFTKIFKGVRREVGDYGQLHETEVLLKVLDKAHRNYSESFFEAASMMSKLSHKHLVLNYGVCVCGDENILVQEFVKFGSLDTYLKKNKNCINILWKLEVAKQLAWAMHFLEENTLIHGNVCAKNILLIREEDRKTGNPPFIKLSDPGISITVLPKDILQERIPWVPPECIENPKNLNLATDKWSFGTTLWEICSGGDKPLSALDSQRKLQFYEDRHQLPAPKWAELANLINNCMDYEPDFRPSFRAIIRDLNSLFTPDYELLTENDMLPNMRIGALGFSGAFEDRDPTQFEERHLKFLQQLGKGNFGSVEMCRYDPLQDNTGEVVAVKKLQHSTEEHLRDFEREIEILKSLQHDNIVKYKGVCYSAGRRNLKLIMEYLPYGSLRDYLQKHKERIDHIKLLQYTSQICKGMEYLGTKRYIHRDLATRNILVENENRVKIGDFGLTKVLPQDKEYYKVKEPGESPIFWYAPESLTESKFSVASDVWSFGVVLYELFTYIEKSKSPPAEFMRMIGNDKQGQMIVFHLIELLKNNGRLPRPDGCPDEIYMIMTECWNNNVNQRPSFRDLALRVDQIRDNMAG
Description: as §1

JAK 3 = JAK 3 (Homo sapiens (Human), UniProt P52333); assay: Biochemical potency on JAK3, TR-FRET LANCE Ultra kinase assay (compounds 1-92); conditions: ATP at Km, read-out: JAK3 inhibitory activity (pIC50 class) (converted)
Sequence of JAK 3 (P52333 whole entry): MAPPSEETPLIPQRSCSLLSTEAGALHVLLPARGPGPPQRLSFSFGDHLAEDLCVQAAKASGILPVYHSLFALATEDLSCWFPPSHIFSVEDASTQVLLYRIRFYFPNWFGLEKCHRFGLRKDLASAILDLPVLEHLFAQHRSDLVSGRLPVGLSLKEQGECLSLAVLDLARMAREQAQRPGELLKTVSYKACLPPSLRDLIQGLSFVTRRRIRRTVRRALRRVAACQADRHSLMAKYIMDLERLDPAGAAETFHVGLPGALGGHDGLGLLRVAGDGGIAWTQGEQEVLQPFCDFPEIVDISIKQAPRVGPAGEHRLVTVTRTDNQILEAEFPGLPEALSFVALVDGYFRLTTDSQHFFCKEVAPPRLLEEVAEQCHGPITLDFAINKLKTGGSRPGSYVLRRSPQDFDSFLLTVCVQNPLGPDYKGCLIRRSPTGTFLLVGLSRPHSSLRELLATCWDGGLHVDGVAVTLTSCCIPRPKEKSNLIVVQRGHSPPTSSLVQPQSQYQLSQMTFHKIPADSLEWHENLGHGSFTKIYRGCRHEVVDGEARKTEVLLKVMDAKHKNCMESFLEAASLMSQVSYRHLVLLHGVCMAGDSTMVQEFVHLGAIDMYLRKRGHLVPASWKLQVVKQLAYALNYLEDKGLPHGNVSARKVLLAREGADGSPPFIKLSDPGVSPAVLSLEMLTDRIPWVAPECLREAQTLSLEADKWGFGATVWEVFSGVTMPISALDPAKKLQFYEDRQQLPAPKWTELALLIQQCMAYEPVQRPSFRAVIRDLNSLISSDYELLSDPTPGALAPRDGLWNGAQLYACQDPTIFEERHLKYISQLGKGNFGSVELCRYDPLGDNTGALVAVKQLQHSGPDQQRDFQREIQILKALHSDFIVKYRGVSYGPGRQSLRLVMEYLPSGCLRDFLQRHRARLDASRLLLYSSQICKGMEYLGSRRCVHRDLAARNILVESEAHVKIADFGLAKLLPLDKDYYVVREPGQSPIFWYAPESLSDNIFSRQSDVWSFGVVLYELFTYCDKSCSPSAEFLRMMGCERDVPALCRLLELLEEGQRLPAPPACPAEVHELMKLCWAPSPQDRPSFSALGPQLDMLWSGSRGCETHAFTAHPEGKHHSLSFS
Description: as §1

TYK2 = TYK2 (Homo sapiens (Human), UniProt P29597); assay: Biochemical potency on Tyk2, TR-FRET LANCE Ultra kinase assay (compounds 1-92); conditions: ATP at Km, read-out: Tyk2 inhibitory activity (pIC50 class) (converted)
Sequence of TYK2 (P29597 whole entry): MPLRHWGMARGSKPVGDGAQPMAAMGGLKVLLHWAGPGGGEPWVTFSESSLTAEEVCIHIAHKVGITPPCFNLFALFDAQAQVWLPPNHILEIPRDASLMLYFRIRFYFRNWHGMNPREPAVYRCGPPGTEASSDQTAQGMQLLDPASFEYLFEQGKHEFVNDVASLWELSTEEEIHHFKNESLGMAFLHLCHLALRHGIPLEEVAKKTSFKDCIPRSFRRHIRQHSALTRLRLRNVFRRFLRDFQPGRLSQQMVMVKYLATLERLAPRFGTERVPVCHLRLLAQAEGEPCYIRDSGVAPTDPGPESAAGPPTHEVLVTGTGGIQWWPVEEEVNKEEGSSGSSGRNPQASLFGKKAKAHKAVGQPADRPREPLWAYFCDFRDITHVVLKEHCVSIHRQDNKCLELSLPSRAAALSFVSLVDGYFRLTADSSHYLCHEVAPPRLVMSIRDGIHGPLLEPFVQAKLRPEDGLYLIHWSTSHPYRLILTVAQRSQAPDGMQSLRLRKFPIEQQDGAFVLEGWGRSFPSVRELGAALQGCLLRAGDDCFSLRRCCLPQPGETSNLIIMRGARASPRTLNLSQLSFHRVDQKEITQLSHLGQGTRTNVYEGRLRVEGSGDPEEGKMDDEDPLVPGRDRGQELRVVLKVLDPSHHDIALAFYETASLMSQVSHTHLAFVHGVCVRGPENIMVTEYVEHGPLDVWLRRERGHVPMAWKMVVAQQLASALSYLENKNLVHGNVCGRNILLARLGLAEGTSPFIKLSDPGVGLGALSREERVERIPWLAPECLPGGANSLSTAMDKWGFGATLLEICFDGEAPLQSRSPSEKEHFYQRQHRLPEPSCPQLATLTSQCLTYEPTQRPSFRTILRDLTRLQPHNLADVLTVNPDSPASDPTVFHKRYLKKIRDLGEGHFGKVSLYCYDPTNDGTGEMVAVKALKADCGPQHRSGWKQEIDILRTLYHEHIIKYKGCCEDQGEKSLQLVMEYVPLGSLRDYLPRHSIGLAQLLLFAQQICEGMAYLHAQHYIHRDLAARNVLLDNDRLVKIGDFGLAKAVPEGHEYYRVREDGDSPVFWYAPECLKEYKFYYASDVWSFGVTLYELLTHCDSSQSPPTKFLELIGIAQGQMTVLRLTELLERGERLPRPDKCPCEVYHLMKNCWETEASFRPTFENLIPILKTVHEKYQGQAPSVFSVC
Description: as §1

Sequence of JAK 1 (P23458 whole entry, canonical isoform): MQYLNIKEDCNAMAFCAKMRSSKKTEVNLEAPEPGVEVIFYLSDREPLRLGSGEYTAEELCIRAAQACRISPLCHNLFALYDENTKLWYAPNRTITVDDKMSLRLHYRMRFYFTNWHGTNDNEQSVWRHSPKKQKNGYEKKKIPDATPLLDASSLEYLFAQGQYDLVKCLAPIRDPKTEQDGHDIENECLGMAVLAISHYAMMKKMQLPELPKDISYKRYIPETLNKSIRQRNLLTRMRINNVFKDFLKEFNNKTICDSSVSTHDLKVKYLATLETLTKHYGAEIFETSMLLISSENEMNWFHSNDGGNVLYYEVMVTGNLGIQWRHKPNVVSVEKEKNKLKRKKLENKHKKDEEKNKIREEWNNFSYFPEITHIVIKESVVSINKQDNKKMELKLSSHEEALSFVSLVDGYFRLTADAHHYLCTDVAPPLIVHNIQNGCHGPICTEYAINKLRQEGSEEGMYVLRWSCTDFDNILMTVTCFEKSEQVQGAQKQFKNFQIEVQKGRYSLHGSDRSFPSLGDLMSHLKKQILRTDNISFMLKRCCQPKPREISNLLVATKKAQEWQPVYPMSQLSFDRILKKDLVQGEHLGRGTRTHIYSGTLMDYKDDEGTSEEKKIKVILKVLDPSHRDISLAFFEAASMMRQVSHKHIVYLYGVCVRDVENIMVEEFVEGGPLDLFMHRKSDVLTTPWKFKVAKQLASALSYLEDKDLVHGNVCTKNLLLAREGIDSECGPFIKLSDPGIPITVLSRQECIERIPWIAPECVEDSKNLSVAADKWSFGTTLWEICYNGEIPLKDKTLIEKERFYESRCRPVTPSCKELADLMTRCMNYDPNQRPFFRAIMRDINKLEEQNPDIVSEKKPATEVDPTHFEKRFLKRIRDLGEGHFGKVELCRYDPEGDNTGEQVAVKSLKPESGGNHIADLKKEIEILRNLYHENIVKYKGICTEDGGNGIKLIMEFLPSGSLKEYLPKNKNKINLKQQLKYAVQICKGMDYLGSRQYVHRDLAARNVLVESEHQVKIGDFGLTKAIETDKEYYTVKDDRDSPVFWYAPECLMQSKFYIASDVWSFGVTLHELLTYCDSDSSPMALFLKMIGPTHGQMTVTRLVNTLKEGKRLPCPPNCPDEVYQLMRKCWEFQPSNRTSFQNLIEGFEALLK

| IC50 (JAK 1) [nM] | IC50 (JAK 2) [nM] | IC50 (JAK 3) [nM] | IC50 (TYK2) [nM] | Compound |
| --- | --- | --- | --- | --- |
| ≤ 5.01 | ≤ 5.01 | ≤ 5.01 | 5.01 to 50.1 | COc1cc(NS(C)(=O)=O)ccc1-n1nc(C(=O)NCCN2CCOCC2)c2cnc(-c3cnn4cccnc34)cc21 [Example 45, 1-(2-methoxy-4-(methylsulfonamido)phenyl)-N-(2-morpholinoethyl)-6-(pyrazolo[1,5-a]pyrimidin-3-yl)-1H-pyrazolo[4,3-c]pyridine-3-carboxamide] |
| ≤ 5.01 | ≤ 5.01 | 5.01 to 50.1 | 5.01 to 50.1 | COc1cc(NS(C)(=O)=O)ccc1-n1nc(C(=O)NCCCN(C)C)c2cnc(-c3cnn4cccnc34)cc21 [Example 43, N-(3-(dimethylamino)propyl)-1-(2-methoxy-4-(methylsulfonamido)phenyl)-6-(pyrazolo[1,5-a]pyrimidin-3-yl)-1H-pyrazolo[4,3-c]pyridine-3-carboxamide] |
| ≤ 5.01 | ≤ 5.01 | ≤ 5.01 | 5.01 to 50.1 | COc1cc(NS(C)(=O)=O)ccc1-n1nc(NCCN2CCOCC2)c2cnc(-c3cnc4cccnn34)cc21 [Example 76, N-(4-(6-(imidazo[1,2-b]pyridazin-3-yl)-3-((2-morpholinoethyl)amino)-1H-pyrazolo[4,3-c]pyridin-1-yl)-3-methoxyphenyl)methanesulfonamide] |
| ≤ 5.01 | ≤ 5.01 | ≤ 5.01 | 5.01 to 50.1 | COc1cc(NS(C)(=O)=O)ccc1-n1nc(NCC2CN(C)CCO2)c2cnc(-c3cnn4cccnc34)cc21 (racemic) [Example 28, N-(3-methoxy-4-(3-(((4-methylmorpholin-2-yl)methyl)amino)-6-(pyrazolo[1,5-a]pyrimidin-3-yl)-1H-pyrazolo[4,3-c]pyridin-1-yl)phenyl)methanesulfonamide] |
| 5.01 to 50.1 | 5.01 to 50.1 | 5.01 to 50.1 | > 50.1 | COc1cc(N)ccc1-n1nc(C)c2cnc(-c3cnn4cccnc34)cc21 [Example 17, 3-methoxy-4-(3-methyl-6-(pyrazolo[1,5-a]pyrimidin-3-yl)-1H-pyrazolo[4,3-c]pyridin-1-yl)aniline] |
| 5.01 to 50.1 | ≤ 5.01 | 5.01 to 50.1 | 5.01 to 50.1 | COc1cc(CNS(C)(=O)=O)ccc1-n1nc(NCCN2CCCCC2)c2cnc(-c3cnn4cccnc34)cc21 [Example 54, N-(3-methoxy-4-(3-((2-(piperidin-1-yl)ethyl)amino)-6-(pyrazolo[1,5-a]pyrimidin-3-yl)-1H-pyrazolo[4,3-c]pyridin-1-yl)benzyl)methanesulfonamide] |
| ≤ 5.01 | ≤ 5.01 | ≤ 5.01 | 5.01 to 50.1 | CNc1nn(-c2ccc(CNS(C)(=O)=O)cc2OC)c2cc(-c3cnn4cccnc34)ncc12 [Example 55, N-(3-methoxy-4-(3-(methylamino)-6-(pyrazolo[1,5-a]pyrimidin-3-yl)-1H-pyrazolo[4,3-c]pyridin-1-yl)benzyl)methanesulfonamide] |
| ≤ 5.01 | 5.01 to 50.1 | 5.01 to 50.1 | 5.01 to 50.1 | COc1cc(CNS(C)(=O)=O)ccc1-n1nc(C(=O)NCCCN(C)C)c2cnc(-c3cnn4cccnc34)cc21 [Example 59, N-(3-(dimethylamino)propyl)-1-(2-methoxy-4-(methylsulfonamidomethyl)phenyl)-6-(pyrazolo[1,5-a]pyrimidin-3-yl)-1H-pyrazolo[4,3-c]pyridine-3-carboxamide] |
| ≤ 5.01 | ≤ 5.01 | ≤ 5.01 | 5.01 to 50.1 | COc1cc(CNS(=O)(=O)CC#N)ccc1-n1nc(C)c2cnc(-c3cnn4cccnc34)cc21 [Example 68, 1-cyano-N-(3-methoxy-4-(3-methyl-6-(pyrazolo[1,5-a]pyrimidin-3-yl)-1H-pyrazolo[4,3-c]pyridin-1-yl)benzyl)methanesulfonamide] |
| ≤ 5.01 | ≤ 5.01 | ≤ 5.01 | 5.01 to 50.1 | COc1cc(NS(=O)(=O)CC2CC2)ccc1-n1nc(C)c2cnc(-c3cnn4cccnc34)cc21 [Example 5, 1-cyclopropyl-N-(3-methoxy-4-(3-methyl-6-(pyrazolo[1,5-a]pyrimidin-3-yl)-1H-pyrazolo[4,3-c]pyridin-1-yl)phenyl)methanesulfonamide] |
| ≤ 5.01 | ≤ 5.01 | ≤ 5.01 | 5.01 to 50.1 | CCCS(=O)(=O)Nc1ccc(-n2nc(CNC)c3cnc(-c4cnn5cccnc45)cc32)c(OC)c1 [Example 83, N-(3-methoxy-4-(3-((methylamino)methyl)-6-(pyrazolo[1,5-a]pyrimidin-3-yl)-1H-pyrazolo[4,3-c]pyridin-1-yl)phenyl)propane-1-sulfonamide] |
| ≤ 5.01 | ≤ 5.01 | ≤ 5.01 | 5.01 to 50.1 | CCCS(=O)(=O)Nc1ccc(-n2nc(NC)c3cnc(Nc4ncc[nH]c4=O)cc32)c(OC)c1 [Example 91, N-(3-methoxy-4-(3-(methylamino)-6-((3-oxo-3,4-dihydropyrazin-2-yl)amino)-1H-pyrazolo[4,3-c]pyridin-1-yl)phenyl)propane-1-sulfonamide] |
| 5.01 to 50.1 | 5.01 to 50.1 | 5.01 to 50.1 | > 50.1 | CNC(=O)Nc1ccc(-n2nc(C)c3cnc(-c4cnn5cccnc45)cc32)c(OC)c1 [Example 18, 1-(3-methoxy-4-(3-methyl-6-(pyrazolo[1,5-a]pyrimidin-3-yl)-1H-pyrazolo[4,3-c]pyridin-1-yl)phenyl)-3-methylurea] |
| ≤ 5.01 | ≤ 5.01 | ≤ 5.01 | 5.01 to 50.1 | COc1cc(NS(C)(=O)=O)ccc1-n1nc(NCCCN(C)C)c2cnc(-c3cnn4cccnc34)cc21 [Example 22, N-(4-(3-((3-(dimethylamino)propyl)amino)-6-(pyrazolo[1,5-a]pyrimidin-3-yl)-1H-pyrazolo[4,3-c]pyridin-1-yl)-3-methoxyphenyl)methanesulfonamide] |
| ≤ 5.01 | ≤ 5.01 | ≤ 5.01 | 5.01 to 50.1 | CNc1nn(-c2ccc(S(=O)(=O)NC)cc2OC)c2cc(-c3cnn4cccnc34)ncc12 [Example 51, 3-methoxy-N-methyl-4-(3-(methylamino)-6-(pyrazolo[1,5-a]pyrimidin-3-yl)-1H-pyrazolo[4,3-c]pyridin-1-yl)benzenesulfonamide] |
| ≤ 5.01 | ≤ 5.01 | ≤ 5.01 | 5.01 to 50.1 | COCCN1CCC(CNc2nn(-c3ccc(NS(C)(=O)=O)cc3OC)c3cc(-c4cnn5cccnc45)ncc23)CC1 [Example 27, N-(3-methoxy-4-(3-(((1-(2-methoxyethyl)piperidin-4-yl)methyl)amino)-6-(pyrazolo[1,5-a]pyrimidin-3-yl)-1H-pyrazolo[4,3-c]pyridin-1-yl)phenyl)methanesulfonamide] |
| ≤ 5.01 | ≤ 5.01 | ≤ 5.01 | 5.01 to 50.1 | COc1cc(CNS(C)(=O)=O)ccc1-n1nc(NCCN2CCOCC2)c2cnc(-c3cnn4cccnc34)cc21 [Example 53, N-(3-methoxy-4-(3-((2-morpholinoethyl)amino)-6-(pyrazolo[1,5-a]pyrimidin-3-yl)-1H-pyrazolo[4,3-c]pyridin-1-yl)benzyl)methanesulfonamide] |
| ≤ 5.01 | ≤ 5.01 | ≤ 5.01 | 5.01 to 50.1 | COc1cc(NS(C)(=O)=O)ccc1-n1nc(NC(=O)CN2CCN(C)CC2)c2cnc(-c3cnn4cccnc34)cc21 [Example 81, N-(1-(2-methoxy-4-(methylsulfonamido)phenyl)-6-(pyrazolo[1,5-a]pyrimidin-3-yl)-1H-pyrazolo[4,3-c]pyridin-3-yl)-2-(4-methylpiperazin-1-yl)acetamide] |
